This test concerns L1210 leukemia ip in BDF1 mice, survival T/C. Description: NCI In Vivo Anticancer Drug Screen. Data for tumor model L1210 Leukemia (intraperitoneal) in B6D2F1 (BDF1) mice. The settings on record: endpoint: mean survival time, higher = longer survival. Put shortly: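 Each compound was tested against a transplantable tumor grown in mice. The endpoint was survival, with treated animals benchmarked against vehicle controls as a simple ratio.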

Setting [1] is: dose: 100.0 mg/kg/injection, schedule: Q01DX001 (ip), vehicle: carboxymethylcellulose (CMC).
Where [2] appears, read: dose: 100.0 mg/kg/injection, schedule: Q01DX001 (ip), vehicle: saline.
Where [3] appears, read: dose: 200.0 mg/kg/injection, schedule: Q01DX001 (ip), vehicle: carboxymethylcellulose (CMC).
Setting [4] is: dose: 200.0 mg/kg/injection, schedule: Q01DX001 (ip), vehicle: saline.
[5] abbreviates: dose: 400.0 mg/kg/injection, schedule: Q01DX001 (ip), vehicle: carboxymethylcellulose (CMC).
Setting [6] is: dose: 400.0 mg/kg/injection, schedule: Q01DX001 (ip), vehicle: saline.
[7] abbreviates: dose: 25.0 mg/kg/injection, schedule: Q01DX009 (ip), vehicle: saline with Tween-80.
The mark [8] stands for this setting: dose: 100.0 mg/kg/injection, schedule: Q01DX009 (ip), vehicle: saline with Tween-80.
The mark [9] stands for this setting: dose: 100.0 mg/kg/injection, schedule: Q04DX003 (ip), vehicle: saline with Tween-80.
Setting [10] is: dose: 200.0 mg/kg/injection, schedule: Q04DX003 (ip), vehicle: saline with Tween-80.
The mark [11] stands for this setting: dose: 400.0 mg/kg/injection, schedule: Q04DX003 (ip), vehicle: saline with Tween-80.

This passage reports T/C results from PubChem BioAssay AID248 (DTP/NCI, 2004).

Structures are written as SMILES. Toxic doses and inconclusive results are not listed.

As to `CCN(CC)C(C)C(O)c1ccc2cc(Br)c3ccccc3c2c1` (stereo not given), the T/C (dose: 55.0 mg/kg/injection, schedule: Q01DX Z (ip), vehicle: methylcellulose (MC)) is 95 % of control; the T/C (dose: 83.0 mg/kg/injection, schedule: Q01DX Z (ip), vehicle: methylcellulose (MC)) was 97 % of control; the T/C (dose: 125.0 mg/kg/injection, schedule: Q01DX Z (ip), vehicle: methylcellulose (MC)) is 92 % of control.

As to `CCC[CH2][Ge]([CH2]CCC)([CH2]CCC)[N]1C(=O)c2ccccc2C1=O`, the T/C (dose: 50.0 mg/kg/injection, schedule: Q01DX001 (ip), vehicle: carboxymethylcellulose (CMC)) is 102 % of control; the T/C (dose: 50.0 mg/kg/injection, schedule: Q01DX001 (ip), vehicle: saline) is 100 % of control; the T/C under setting [1] is 96 % of control; the T/C under setting [2] was 102 % of control; the T/C under setting [3] was 103 % of control; the T/C under setting [4] was 96 % of control. For the same molecule, the T/C is, setting by setting: under setting [5], 105 % of control; under setting [6], 108 % of control.

`COc1ccc(C2(O)c3ccccc3-c3ccccc32)cc1`: the T/C (dose: 25.0 mg/kg/injection, schedule: Q01DX009 (ip), vehicle: saline) was 98 % of control; the T/C (dose: 50.0 mg/kg/injection, schedule: Q01DX009 (ip), vehicle: saline) is 93 % of control; the T/C (dose: 100.0 mg/kg/injection, schedule: Q01DX009 (ip), vehicle: saline) is 98 % of control; the T/C (dose: 200.0 mg/kg/injection, schedule: Q01DX009 (ip), vehicle: saline) was 101 % of control; the T/C (dose: 300.0 mg/kg/injection, schedule: Q01DX009 (ip), vehicle: saline) is 96 % of control; the T/C (dose: 400.0 mg/kg/injection, schedule: Q01DX009 (ip), vehicle: saline) was 95 % of control.

In the case of `Cc1cc(O)n(Cc2ccccc2)c(=O)c1`, the T/C is 96 % of control under setting [7]; 93 % of control (dose: 50.0 mg/kg/injection, schedule: Q01DX009 (ip), vehicle: saline with Tween-80); 93 % of control under setting [8]; 109 % of control under setting [9]; 94 % of control (dose: 200.0 mg/kg/injection, schedule: Q01DX009 (ip), vehicle: saline with Tween-80); 98 % of control under setting [10]. In addition, the T/C under setting [11] was 90 % of control.

Regarding `Nc1cc2ccccc2c(O)c1O`, the T/C reads like this: (dose: 100.0 mg/kg/injection, schedule: Q04DX003 (ip), vehicle: saline sonified) 93 % of control; (dose: 200.0 mg/kg/injection, schedule: Q04DX003 (ip), vehicle: saline sonified) 96 % of control; (dose: 400.0 mg/kg/injection, schedule: Q04DX003 (ip), vehicle: saline sonified) 90 % of control.

Turning to `O=C1c2ccccc2C(=O)N1Cc1ccc([N+](=O)[O-])cc1`, the T/C was 96 % of control (dose: 100.0 mg/kg/injection, schedule: Q01DX001 (ip), vehicle: other); 103 % of control (dose: 100.0 mg/kg/injection, schedule: Q04DX003 (ip), vehicle: Klucel (hydroxypropylcellulose) (HPC)); 87 % of control (dose: 200.0 mg/kg/injection, schedule: Q01DX001 (ip), vehicle: other); 101 % of control (dose: 200.0 mg/kg/injection, schedule: Q04DX003 (ip), vehicle: Klucel (hydroxypropylcellulose) (HPC)); 95 % of control (dose: 400.0 mg/kg/injection, schedule: Q01DX001 (ip), vehicle: other); 97 % of control (dose: 400.0 mg/kg/injection, schedule: Q04DX003 (ip), vehicle: Klucel (hydroxypropylcellulose) (HPC)).

Consider `CC12CCC(O)C(CC1)C2` (stereo not given), for which the T/C is 107 % of control under setting [9], 88 % of control under setting [10] and 95 % of control under setting [11].

For the molecule `CCOP(=O)(CSCCc1ccccc1)OCC`, the T/C is, setting by setting: (dose: 100.0 mg/kg/injection, schedule: Q04DX003 (ip), vehicle: saline) 92 % of control; (dose: 200.0 mg/kg/injection, schedule: Q04DX003 (ip), vehicle: saline) 103 % of control.

On to `CCOC(CCC#N)c1ccc(C)cc1` (stereo not given), for which the T/C was 113 % of control under setting [9]; 108 % of control (dose: 118.0 mg/kg/injection, schedule: Q01DX009 (ip), vehicle: saline with Tween-80); 98 % of control under setting [10]; 97 % of control (dose: 235.0 mg/kg/injection, schedule: Q01DX009 (ip), vehicle: saline with Tween-80); 95 % of control under setting [11].

For `CCC(=O)C(CCN(C)C)(c1ccccc1)c1ccccc1`, the T/C under setting [2] is 110 % of control.

Take `Clc1ccc2ccc(Cl)cc2c1`: the T/C reads like this: under setting [1], 103 % of control; under setting [3], 95 % of control; under setting [5], 94 % of control.

As for `CC(C)(C)C1(C)OCCCO1`, the T/C was 101 % of control (dose: 100.0 mg/kg/injection, schedule: Q04DX002 (ip), vehicle: saline with Tween-80); 108 % of control (dose: 200.0 mg/kg/injection, schedule: Q04DX002 (ip), vehicle: saline with Tween-80); 87 % of control (dose: 400.0 mg/kg/injection, schedule: Q04DX002 (ip), vehicle: saline with Tween-80).

`CC(C)CCC[C@@H](C)[C@H]1CC[C@H]2[C@@H]3CC[C@H]4C[C@H](NC(=O)N(CCF)N=O)CC[C@]4(C)[C@H]3CC[C@]12C`: the T/C was 102 % of control (dose: 8.0 mg/kg/injection, schedule: Q01DX001 (ip), vehicle: other); 103 % of control (dose: 16.0 mg/kg/injection, schedule: Q01DX001 (ip), vehicle: other); 108 % of control (dose: 31.0 mg/kg/injection, schedule: Q01DX001 (ip), vehicle: other); 116 % of control (dose: 62.0 mg/kg/injection, schedule: Q01DX001 (ip), vehicle: other); 116 % of control (dose: 250.0 mg/kg/injection, schedule: Q01DX001 (ip), vehicle: other); 122 % of control (dose: 375.0 mg/kg/injection, schedule: Q01DX001 (ip), vehicle: other). Besides, the T/C by setting is: (dose: 500.0 mg/kg/injection, schedule: Q01DX001 (ip), vehicle: other) 124 % of control; (dose: 750.0 mg/kg/injection, schedule: Q01DX001 (ip), vehicle: other) 170 % of control; (dose: 1000.0 mg/kg/injection, schedule: Q01DX001 (ip), vehicle: other) 153 % of control; (dose: 1500.0 mg/kg/injection, schedule: Q01DX001 (ip), vehicle: other) 188 % of control; (dose: 2000.0 mg/kg/injection, schedule: Q01DX001 (ip), vehicle: other) 202 % of control; (dose: 2500.0 mg/kg/injection, schedule: Q01DX001 (ip), vehicle: other) 252 % of control.

As for `Cc1cn(C2C=CC(CO)O2)c(=O)[nH]c1=O` (stereo not given), the T/C under setting [8] was 89 % of control and the T/C (dose: 400.0 mg/kg/injection, schedule: Q01DX009 (ip), vehicle: saline with Tween-80) was 90 % of control.

Consider `Oc1ccc(O)c2c1C1C=CC2CC1`, for which the T/C reads like this: under setting [2], 96 % of control; under setting [4], 105 % of control; under setting [6], 98 % of control.

As to `O=C(NCCCl)NC1CS(=O)(=O)CS(=O)(=O)C1`, the T/C (dose: 75.0 mg/kg/injection, schedule: Q01DX001 (ip), vehicle: other) was 104 % of control.

Regarding `CC12CCCCC1SC(F)(F)C2(F)F` (stereo not given), the T/C by setting is: (dose: 12.5 mg/kg/injection, schedule: Q01DX009 (ip), vehicle: saline with Tween-80) 95 % of control; under setting [7], 98 % of control.
